Measured values: patent US11453672B2, “Substituted pyrazolo[1,5-a]pyrimidines as tropomyosin receptor kinase inhibitors” (SHENZHEN TARGETRX, INC., priority 2017, dated 2022)

Experiments:
[1] = Metabolic stability evaluation, human liver microsomes; type: in vitro ADME; details: pH 7.4, 1 μM compound, 0.5 mg/mL protein, 37° C.; for microsomal CLint at 1 μM: read-out: human liver microsome CLint; for half-life at 1 μM: read-out: human liver microsome t1/2
Protocol: (§1) Microsomal experiments: human liver microsomes: 0.5 mg/mL, Xenotech; rat liver microsomes: 0.5 mg/mL, Xenotech; coenzyme (NADPH/NADH): 1 mM, Sigma Life Science; magnesium chloride: 5 mM, 100 mM phosphate buffer agent (pH 7.4).
(§2) Preparation of the stock solution: A certain amount of the powder of the example compounds was accurately weighed and dissolved to 5 mM with DMSO.
(§3) Preparation of phosphate buffer (100 mM, pH 7.4): 150 mL of pre-prepared 0.5 M potassium dihydrogen phosphate solution was mixed with 700 mL of pre-prepared 0.5 M dipotassium hydrogen phosphate solution, and the pH of the mixture was adjusted with 0.5 M dipotassium hydrogen phosphate solution to 7.4. It was diluted 5 times with ultrapure water before use, and magnesium chloride was added to obtain a phosphate buffer (100 mM) containing 100 mM potassium phosphate, 3.3 mM magnesium chloride, and a pH of 7.4.
(§4) A solution of NADPH regeneration system (containing 6.5 mM NADP, 16.5 mM G-6-P, 3 U/mL G-6-P D, 3.3 mM magnesium chloride) was prepared and placed on wet ice before use.
(§5) Preparation of stop solution: acetonitrile solution containing 50 ng/mL propranolol hydrochloride and 200 ng/mL tolbutamide (internal standard). 25057.5 μL of phosphate buffer (pH 7.4) was taken into a 50 mL centrifuge tube, 812.5 μL of human liver microsomes was added, and mixed uniformly to obtain a liver microsome dilution with a protein concentration of 0.625 mg/mL. 25057.5 μL of phosphate buffer (pH 7.4) was taken into a 50 mL centrifuge tube, and 812.5 μL of SD rat liver microsomes was added, and mixed uniformly to obtain a liver microsome dilution with a protein concentration of 0.625 mg/mL.
(§6) Incubation of the sample: The stock solutions of the corresponding compounds were diluted to 0.25 mM as working solutions with an aqueous solution containing 70% acetonitrile before use. 398 μL of human liver microsomes or rat liver microsome dilutions were added to 96-well incubation plates (N=2), and 2 μL of 0.25 mM working solutions were added and mixed uniformly, respectively.
(§7) Determination of metabolic stability: 300 μL of pre-cooled stop solution was added to each well of a 96-well deep well plate, which was placed on ice as a stop plate. The 96-well incubation plate and the NADPH regeneration system were placed in a 37° C. water bath, shaken at 100 rpm, and pre-incubated for 5 min. 80 μL of the incubation solution was removed from each well of the incubation plate, added to the stop plate, and mixed uniformly, and 20 μL of the NADPH regeneration system solution was supplemented as a sample at 0 min. Then, 80 μL of the NADPH regeneration system solution was added to each well of the incubation plate to start the reaction and the timing was started. […] 100 μL of the reaction solution was removed at 10, 30, and 90 min of the reaction, respectively, and added to the stop plate, and the reaction was terminated by vortexing for 3 min. The stop plate was centrifuged at 5000×g for 10 min at 4° C. 100 μL of the supernatant was removed into a 96-well plate to which 100 μL of distilled water was previously added, mixed uniformly, and sample analysis was performed by LC-MS/MS.
(§8) Data analysis: The peak areas of the corresponding compounds and the internal standard were detected by LC-MS/MS system, and the ratios of the peak areas of the compounds to the internal standard were calculated.

[2] = Metabolic stability evaluation, rat liver microsomes; type: in vitro ADME; details: SD, pH 7.4, 1 μM compound, 0.5 mg/mL protein, 37° C.; for microsomal CLint at 1 μM: read-out: rat liver microsome CLint; for half-life at 1 μM: read-out: rat liver microsome t1/2
Protocol: as §1, §2, §3, §4, §5, §6, §7, §8

microsomal CLint at 1 μM [1] | half-life at 1 μM [1] | microsomal CLint at 1 μM [2] | half-life at 1 μM [2] | SMILES
21 µL/min/mg | 1.1 h | – | – | [2H]C1([2H])C[C@H](c2cc(F)ccc2F)N(c2ccn3ncc(NC(=O)N4CC[C@H](O)C4)c3n2)C1 [Compound L-4, (S)—N-(5-((R)-2-(2,5-difluorophenyl)pyrrolidin-1-yl-4,4-d2)pyrazolo[1,5-a]pyrimidin-3-yl)-3-hydroxypyrrolidine-1-carboxamide]
19.1 µL/min/mg | 1.21 h | 16.8 µL/min/mg | 1.38 h | [2H]C1([2H])C[C@H](O)C([2H])([2H])N1C(=O)Nc1cnn2ccc(N3CCC([2H])([2H])C3([2H])c3cc(F)ccc3F)nc12 (stereo in doubt) [Compound L-3, (S)—N-(5-((R)-2-(2,5-difluorophenyl)pyrrolidin-1-yl-2,3,3-d3)-pyrazolo[1,5-a]pyrimidin-3-yl)-3-hydroxypyrrolidine-2,2,5,5-d4-1-carboxamide]
20.6 µL/min/mg | 1.12 h | 15.8 µL/min/mg | 1.46 h | [2H]C1([2H])CC([2H])([2H])[C@@]([2H])(c2cc(F)ccc2F)N1c1ccn2ncc(NC(=O)N3CC[C@H](O)C3)c2n1 [Compound L-7, (S)—N-(5-((R)-2-(2,5-difluorophenyl)pyrrolidin-1-yl-2,3,3,5,5-d2)pyrazolo[1,5-a]pyrimidin-3-yl)-3-hydroxypyrrolidine-1-carboxamide]
21.3 µL/min/mg | 1.08 h | 31.7 µL/min/mg | 1.06 h | O=C(Nc1cnn2ccc(N3CCC[C@@H]3c3cc(F)ccc3F)nc12)N1CC[C@H](O)C1 [LOXO-101, (S)—N-(5-((R)-2-(2,5-difluorophenyl)-pyrrolidin-1-yl)pyrazolo[1,5-a]pyrimidin-3-yl)-3-hydroxypyrrolidine-1-carboxamide, reference compound]
18.2 µL/min/mg | 1.27 h | 19.2 µL/min/mg | 1.2 h | [2H]C1([2H])C[C@H](O)C([2H])([2H])N1C(=O)Nc1cnn2ccc(N3CCC[C@@H]3c3cc(F)ccc3F)nc12 [Compound L-1, (S)—N-(5-((R)-2-(2,5-difluorophenyl)pyrrolidin-1-yl)-pyrazolo[1,5-a]pyrimidine-3-yl)-3-hydroxypyrrolidine-2,2,5,5-d4-1-carboxamide]
